Article PMC9134235 (ACS Omega, 2022)

Experiments:
DOR = DOR (Homo sapiens, UniProt P41143); test: DOR-Tango β-arrestin2 recruitment, dose–response; format: cell-based; settings: for reversal of the agonist activity of EIPA: 10 μM EIPA, increasing antagonist; for agonist / allosteric activity at DOR: 10 μM modulator, in the presence or absence of DADLE; for effect of extracellular Na+ on agonistic activity: reducing extracellular Na+ to 30 mM
different GPCRs = settings: cited from earlier work
[1] = test system: gonadotropin-releasing hormone receptor (GnRHR); settings: 10 μM; cited from earlier work
DOR D95A2.50 = DOR D95A2.50 (Homo sapiens, UniProt P41143, D95A); test: Mutant DOR-Tango β-arrestin2 recruitment; format: cell-based; settings: 10 μM modulator
Sequence of DOR D95A2.50 (P41143 whole entry D95A): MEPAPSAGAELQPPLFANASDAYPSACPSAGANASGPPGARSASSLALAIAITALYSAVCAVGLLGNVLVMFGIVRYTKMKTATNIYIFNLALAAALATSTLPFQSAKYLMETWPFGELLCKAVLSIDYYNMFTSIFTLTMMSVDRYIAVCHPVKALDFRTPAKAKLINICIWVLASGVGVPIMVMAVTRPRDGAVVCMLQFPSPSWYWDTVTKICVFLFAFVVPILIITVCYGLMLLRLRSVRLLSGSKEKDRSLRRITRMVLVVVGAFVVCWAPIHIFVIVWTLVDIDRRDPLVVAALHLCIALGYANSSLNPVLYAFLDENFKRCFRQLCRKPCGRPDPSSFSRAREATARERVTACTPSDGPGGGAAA

DOR chimera KOR-TM1 = DOR chimera KOR-TM1 (Homo sapiens, UniProt P41143+P41145, A58V/A61V/C60F/G73V/L55V/L65V/V68S/V75I); test: Chimera DOR-Tango β-arrestin2 recruitment; format: cell-based; settings: 10 μM modulator
DOR WT = DOR WT (Homo sapiens, UniProt P41143); test: 3H-DADLE competition binding; settings: binding experiment in allosteric mode
Sequence of DOR WT (P41143 whole entry): as the sequence (P41143 whole entry D95A) above, with A95D counted along it

kappa-opioid receptor = settings: ref Tracey et al.[45]; cited from earlier work
cells = test: Toxicity to cells; format: cell-based, human; settings: at 10 μM
rat mu-opioid = settings: ref Tracey et al.[45]; cited from earlier work
DOR N131V3.35 = DOR N131V3.35 (Homo sapiens, UniProt P41143, N131V); test: Mutant DOR-Tango β-arrestin2 recruitment; format: cell-based; settings: 10 μM
Sequence of DOR N131V3.35 (P41143 whole entry N131V, one chain of several): as the sequence (P41143 whole entry D95A) above, with A95D, N131V counted along it

DOR S135A3.39 = DOR S135A3.39 (Homo sapiens, UniProt P41143, S135A); test: Mutant DOR-Tango β-arrestin2 recruitment; format: cell-based; settings: 10 μM
Sequence of DOR S135A3.39 (P41143 whole entry S135A, one chain of several): as the sequence (P41143 whole entry D95A) above, with A95D, S135A counted along it

mouse delta-opioid = settings: ref Tracey et al.[45]; cited from earlier work
M2 muscarinic receptor = target: T1, M2 muscarinic receptor (Homo sapiens, UniProt P08172); test: M2-Tango β-arrestin2 recruitment, carbachol dose–response; format: cell-based; settings: external Na+ increased to 200 mM
T1 sequence (P08172 1-466): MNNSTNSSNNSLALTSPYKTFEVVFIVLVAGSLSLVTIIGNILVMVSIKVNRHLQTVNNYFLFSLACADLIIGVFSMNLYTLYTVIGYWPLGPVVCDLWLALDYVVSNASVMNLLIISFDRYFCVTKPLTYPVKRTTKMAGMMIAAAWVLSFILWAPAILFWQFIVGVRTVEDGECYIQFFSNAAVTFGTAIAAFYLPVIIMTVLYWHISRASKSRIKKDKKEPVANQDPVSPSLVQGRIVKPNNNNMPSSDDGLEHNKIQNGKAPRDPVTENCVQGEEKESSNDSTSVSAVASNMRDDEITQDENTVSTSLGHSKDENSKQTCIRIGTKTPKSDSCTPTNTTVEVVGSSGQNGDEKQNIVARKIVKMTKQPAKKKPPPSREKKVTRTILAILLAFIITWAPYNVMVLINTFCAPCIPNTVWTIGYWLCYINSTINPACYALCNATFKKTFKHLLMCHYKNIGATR

M5 muscarinic receptor = target: T2, M5 muscarinic receptor (Homo sapiens, UniProt P08912); test: M5-Tango β-arrestin2 recruitment, carbachol dose–response; format: cell-based; settings: external Na+ increased to 200 mM
T2 sequence (P08912 1-532): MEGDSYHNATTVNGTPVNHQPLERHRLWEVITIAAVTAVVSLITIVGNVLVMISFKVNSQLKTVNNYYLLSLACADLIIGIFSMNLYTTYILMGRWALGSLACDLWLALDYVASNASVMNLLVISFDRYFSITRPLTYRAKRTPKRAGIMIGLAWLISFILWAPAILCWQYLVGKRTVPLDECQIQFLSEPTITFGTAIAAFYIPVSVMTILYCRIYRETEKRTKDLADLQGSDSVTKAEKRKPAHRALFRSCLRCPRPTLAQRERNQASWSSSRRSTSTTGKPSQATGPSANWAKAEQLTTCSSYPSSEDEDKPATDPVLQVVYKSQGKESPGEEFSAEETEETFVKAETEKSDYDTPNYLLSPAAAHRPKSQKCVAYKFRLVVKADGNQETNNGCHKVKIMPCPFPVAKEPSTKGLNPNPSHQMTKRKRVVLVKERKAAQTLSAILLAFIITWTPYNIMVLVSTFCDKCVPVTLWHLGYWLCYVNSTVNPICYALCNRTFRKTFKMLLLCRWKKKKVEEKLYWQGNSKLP

M4 muscarinic receptor = target: T3, M4 muscarinic receptor (Homo sapiens, UniProt P08173); test: M4-Tango β-arrestin2 recruitment, carbachol dose–response; format: cell-based; settings: external Na+ increased to 200 mM
T3 sequence (P08173 1-479): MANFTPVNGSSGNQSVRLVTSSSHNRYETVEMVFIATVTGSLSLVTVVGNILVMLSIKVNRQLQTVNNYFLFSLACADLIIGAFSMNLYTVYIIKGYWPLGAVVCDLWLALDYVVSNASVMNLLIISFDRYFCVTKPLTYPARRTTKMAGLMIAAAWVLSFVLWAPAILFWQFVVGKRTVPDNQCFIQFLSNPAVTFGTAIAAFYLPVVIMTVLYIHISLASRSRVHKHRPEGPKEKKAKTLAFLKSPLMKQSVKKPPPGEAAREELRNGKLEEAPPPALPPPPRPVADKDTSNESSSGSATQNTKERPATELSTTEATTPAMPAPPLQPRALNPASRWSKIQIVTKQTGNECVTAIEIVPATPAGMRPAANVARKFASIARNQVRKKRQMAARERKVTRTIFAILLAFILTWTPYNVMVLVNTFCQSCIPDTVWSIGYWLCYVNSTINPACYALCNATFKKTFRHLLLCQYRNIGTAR

Sequence of DOR (P41143 whole entry): as the sequence (P41143 whole entry D95A) above, with A95D counted along it

NC(N)=Nc1ccc2[nH]c3c(c2c1)C[C@@]1(O)[C@H]2Cc4ccc(O)c5c4[C@@]1(CCN2CC1CC1)[C@H]3O5 [5′-GNTI]
reversal of the agonist activity of EIPA (DOR): reversed

NC(N)=Nc1ccc2c3c([nH]c2c1)[C@@H]1Oc2c(O)ccc4c2[C@@]12CCN(CC1CC1)[C@H](C4)[C@]2(O)C3 [6′-GNTI]
reversal of the agonist activity of EIPA (DOR): reversed

N=C(N)NC(=O)c1nc(Cl)c(N)nc1N [Amiloride, amiloride]
agonist / allosteric activity at DOR (DOR): no activity
affinity (different GPCRs; allosteric modulation on different GPCRs): > 10 µM
concentration with activity in biophysical studies (different GPCRs; most biophysical studies using amiloride): > 100 µM

CN(C)c1nc(N)c(C(=O)NC(=N)N)nc1Cl [DMA, 5-(N,N-dimethyl)amiloride]
agonist / allosteric activity at DOR (DOR): lack of DMA activity

CCN(c1nc(N)c(C(=O)N=C(N)N)nc1Cl)C(C)C [EIPA, 5-(N-ethyl-N-isopropyl)-amiloride]
agonist / allosteric activity at DOR (DOR): significant agonist and positive allosteric modulation (ago-PAM)

NC(N)=NC(=O)c1nc(Cl)c(N2CCCCCC2)nc1N [HMA, 5-(N,N-hexamethylene)amiloride]
functional effect [1]: modest effect
modulator properties at mutant (DOR D95A2.50): almost complete loss of original properties
allosteric modulation (PAM) at chimera (DOR chimera KOR-TM1): loss of allosteric modulation (PAM)
effect of extracellular Na+ on agonistic activity (DOR): slightly increases

CC(C)CN(C)c1nc(N)c(C(=O)N=C(N)N)nc1Cl [MIA, 5-(N-methyl-N-isobutyl)amiloride]
modulator properties at mutant (DOR D95A2.50): almost complete loss of original properties
allosteric modulation (PAM) at chimera (DOR chimera KOR-TM1): loss of allosteric modulation (PAM)
agonist / allosteric activity at DOR (DOR): best ago-PAM
effect of extracellular Na+ on agonistic activity (DOR): slightly increases
effect on the Ki of naltrindole toward 3H-DADLE (DOR WT): no effect

Oc1ccc2c3c1O[C@H]1c4[nH]c5ccccc5c4C[C@@]4(O)[C@@H](C2)N(CC2CC2)CC[C@]314 [Naltrindole, naltrindole]
reversal of the agonist activity of EIPA (DOR): reversed

NC(=Nc1ccccc1)NC(=O)c1nc(Cl)c(N)nc1N [Phenamil, phenamil]
agonist / allosteric activity at DOR (DOR): inactive

N=C(N)NC(=O)c1cnn(-c2cccc3ncccc23)c1C1CC1 [Zoniporide, zoniporide]
interaction (kappa-opioid receptor): no detectable interaction
toxicity (cells): no toxicity
modulator properties at mutant (DOR D95A2.50): almost complete loss of original properties
allosteric modulation (PAM) at chimera (DOR chimera KOR-TM1): loss of allosteric modulation (PAM)
affinity (rat mu-opioid): 60 nM
ago-PAM properties at mutant (DOR N131V3.35): increase in the ago-PAM properties
agonist / allosteric activity at DOR (DOR): best PAM without intrinsic agonist activity
ago-PAM properties at mutant (DOR S135A3.39): increase in the ago-PAM properties
affinity (mouse delta-opioid): 238 nM

C[N+](C)(C)CCOC(N)=O [carbachol]
increase of efficacy (M2 muscarinic receptor): more than 3 fold
increase of efficacy (M5 muscarinic receptor): weakly increasing efficacy
increase of efficacy (M4 muscarinic receptor): more than 3 fold
